{
  "source": "the CombiSolv-Exp solvation set (Vermeire and Green 2021)",
  "assay": "solvent given as SMILES",
  "data": [
    {"smiles": "C=C(C)C", "values": [
      {"measurement": "solvation free energy, 298 K", "setting": "in CC(C)(C)O", "value": -2.03, "unit": "kcal/mol"},
      {"measurement": "solvation free energy, 298 K", "setting": "in CC(C)=O", "value": -2.37, "unit": "kcal/mol"},
      {"measurement": "solvation free energy, 298 K", "setting": "in CC(C)CCO", "value": -1.99, "unit": "kcal/mol"},
      {"measurement": "solvation free energy, 298 K", "setting": "in CC(C)CO", "value": -1.98, "unit": "kcal/mol"},
      {"measurement": "solvation free energy, 298 K", "setting": "in CC(C)O", "value": -1.98, "unit": "kcal/mol"},
      {"measurement": "solvation free energy, 298 K", "setting": "in CCC(C)(C)O", "value": -2.09, "unit": "kcal/mol"},
      {"measurement": "solvation free energy, 298 K", "setting": "in CCC(C)CO", "value": -1.98, "unit": "kcal/mol"},
      {"measurement": "solvation free energy, 298 K", "setting": "in CCC(C)O", "value": -1.99, "unit": "kcal/mol"},
      {"measurement": "solvation free energy, 298 K", "setting": "in CCC(O)CC", "value": -2.01, "unit": "kcal/mol"},
      {"measurement": "solvation free energy, 298 K", "setting": "in CCCC(C)O", "value": -2.01, "unit": "kcal/mol"},
      {"measurement": "solvation free energy, 298 K", "setting": "in CCCCC", "value": -2.49, "unit": "kcal/mol"},
      {"measurement": "solvation free energy, 298 K", "setting": "in CCCCCC", "value": -2.43, "unit": "kcal/mol"},
      {"measurement": "solvation free energy, 298 K", "setting": "in CCCCCCC", "value": -2.44, "unit": "kcal/mol"},
      {"measurement": "solvation free energy, 298 K", "setting": "in CCCCCCCC", "value": -2.41, "unit": "kcal/mol"},
      {"measurement": "solvation free energy, 298 K", "setting": "in CCCCCCCCC", "value": -2.39, "unit": "kcal/mol"},
      {"measurement": "solvation free energy, 298 K", "setting": "in CCCCCCCCCC", "value": -2.36, "unit": "kcal/mol"},
      {"measurement": "solvation free energy, 298 K", "setting": "in CCCCCO", "value": -2.01, "unit": "kcal/mol"},
      {"measurement": "solvation free energy, 298 K", "setting": "in CCCCO", "value": -2.17, "unit": "kcal/mol"},
      {"measurement": "solvation free energy, 298 K", "setting": "in CCCO", "value": -2.01, "unit": "kcal/mol"},
      {"measurement": "solvation free energy, 298 K", "setting": "in CCOC(C)=O", "value": -2.55, "unit": "kcal/mol"},
      {"measurement": "solvation free energy, 298 K", "setting": "in CN1CCCC1=O", "value": -1.8, "unit": "kcal/mol"},
      {"measurement": "solvation free energy, 298 K", "setting": "in CN(C)C=O", "value": -1.98, "unit": "kcal/mol"},
      {"measurement": "solvation free energy, 298 K", "setting": "in Cc1ccc(C)cc1", "value": -2.32, "unit": "kcal/mol"},
      {"measurement": "solvation free energy, 298 K", "setting": "in Cc1cccc(C)c1", "value": -2.33, "unit": "kcal/mol"},
      {"measurement": "solvation free energy, 298 K", "setting": "in Cc1ccccc1C", "value": -2.31, "unit": "kcal/mol"},
      {"measurement": "solvation free energy, 298 K", "setting": "in ClC(Cl)(Cl)Cl", "value": -2.44, "unit": "kcal/mol"},
      {"measurement": "solvation free energy, 298 K", "setting": "in Ic1ccccc1", "value": -1.91, "unit": "kcal/mol"},
      {"measurement": "solvation free energy, 298 K", "setting": "in N#Cc1ccccc1", "value": -1.97, "unit": "kcal/mol"},
      {"measurement": "solvation free energy, 298 K", "setting": "in O", "value": 1.17, "unit": "kcal/mol"},
      {"measurement": "solvation free energy, 298 K", "setting": "in O=CN1CCOCC1", "value": -1.36, "unit": "kcal/mol"},
      {"measurement": "solvation free energy, 298 K", "setting": "in c1ccccc1", "value": -2.32, "unit": "kcal/mol"}
    ]},
    {"smiles": "Br", "values": [
      {"measurement": "solvation free energy, 298 K", "setting": "in CCCC", "value": -1.23, "unit": "kcal/mol"},
      {"measurement": "solvation free energy, 298 K", "setting": "in CCCCCC", "value": -1.19, "unit": "kcal/mol"},
      {"measurement": "solvation free energy, 298 K", "setting": "in CCCCCCCC", "value": -1.11, "unit": "kcal/mol"},
      {"measurement": "solvation free energy, 298 K", "setting": "in CCCCCCCCCC", "value": -1.09, "unit": "kcal/mol"}
    ]},
    {"smiles": "C=C(C)C(=O)OC", "values": [
      {"measurement": "solvation free energy, 298 K", "setting": "in O", "value": -2.53, "unit": "kcal/mol"}
    ]},
    {"smiles": "CC(C)C(=O)CC(=O)C(C)C", "values": [
      {"measurement": "solvation free energy, 298 K", "setting": "in O", "value": -4.08, "unit": "kcal/mol"}
    ]},
    {"smiles": "Nc1ccccc1Cl", "values": [
      {"measurement": "solvation free energy, 298 K", "setting": "in O", "value": -4.91, "unit": "kcal/mol"}
    ]},
    {"smiles": "CN(C)CCC=C1c2ccccc2CCc2ccccc21", "values": [
      {"measurement": "solvation free energy, 298 K", "setting": "in O", "value": -7.43, "unit": "kcal/mol"}
    ]},
    {"smiles": "CCCCCCCCC=CCCCCCCCC(=O)OCC", "values": [
      {"measurement": "solvation free energy, 298 K", "setting": "in O", "value": -8.25, "unit": "kcal/mol"}
    ]},
    {"smiles": "O=[N+]([O-])c1ccc(Cl)c(Cl)c1", "values": [
      {"measurement": "solvation free energy, 298 K", "setting": "in C1CCCCC1", "value": -8.7, "unit": "kcal/mol"},
      {"measurement": "solvation free energy, 298 K", "setting": "in CC(C)O", "value": -8.04, "unit": "kcal/mol"},
      {"measurement": "solvation free energy, 298 K", "setting": "in CCCCCC", "value": -7.78, "unit": "kcal/mol"},
      {"measurement": "solvation free energy, 298 K", "setting": "in CCCCCCC", "value": -7.65, "unit": "kcal/mol"},
      {"measurement": "solvation free energy, 298 K", "setting": "in CCCCCCCCC=CCCCCCCCC(=O)OCC(COC(=O)CCCCCCCC=CCCCCCCCC)OC(=O)CCCCCCCC=CCCCCCCCC", "value": -7.34, "unit": "kcal/mol"},
      {"measurement": "solvation free energy, 298 K", "setting": "in CCCCO", "value": -8.08, "unit": "kcal/mol"},
      {"measurement": "solvation free energy, 298 K", "setting": "in CCCO", "value": -8.26, "unit": "kcal/mol"},
      {"measurement": "solvation free energy, 298 K", "setting": "in CCO", "value": -8.24, "unit": "kcal/mol"},
      {"measurement": "solvation free energy, 298 K", "setting": "in CCOC(C)=O", "value": -9.16, "unit": "kcal/mol"},
      {"measurement": "solvation free energy, 298 K", "setting": "in CO", "value": -8.41, "unit": "kcal/mol"},
      {"measurement": "solvation free energy, 298 K", "setting": "in ClC(Cl)(Cl)Cl", "value": -9.07, "unit": "kcal/mol"}
    ]},
    {"smiles": "CC(F)(Cl)Cl", "values": [
      {"measurement": "solvation free energy, 298 K", "setting": "in CCCCCCCC(=O)OCC(COC(=O)CCCCCCC)OC(=O)CCCCCCC", "value": -2.89, "unit": "kcal/mol"}
    ]},
    {"smiles": "C=C(C)C1=CC=C(C)CC1", "values": [
      {"measurement": "solvation free energy, 298 K", "setting": "in O", "value": -1.35, "unit": "kcal/mol"}
    ]},
    {"smiles": "CCc1ccc2c(c1)C(=O)c1ccccc1C2=O", "values": [
      {"measurement": "solvation free energy, 298 K", "setting": "in C1CCCCC1", "value": -12.2, "unit": "kcal/mol"},
      {"measurement": "solvation free energy, 298 K", "setting": "in C1CCOC1", "value": -14.2, "unit": "kcal/mol"},
      {"measurement": "solvation free energy, 298 K", "setting": "in C1COCCO1", "value": -14.1, "unit": "kcal/mol"},
      {"measurement": "solvation free energy, 298 K", "setting": "in CC1CCCCC1", "value": -12.1, "unit": "kcal/mol"},
      {"measurement": "solvation free energy, 298 K", "setting": "in CC(C)CC(C)(C)C", "value": -11.6, "unit": "kcal/mol"},
      {"measurement": "solvation free energy, 298 K", "setting": "in CC(C)CCO", "value": -12.2, "unit": "kcal/mol"},
      {"measurement": "solvation free energy, 298 K", "setting": "in CC(C)CO", "value": -12.1, "unit": "kcal/mol"},
      {"measurement": "solvation free energy, 298 K", "setting": "in CC(C)O", "value": -12.1, "unit": "kcal/mol"},
      {"measurement": "solvation free energy, 298 K", "setting": "in CC(C)OC(C)C", "value": -12.4, "unit": "kcal/mol"},
      {"measurement": "solvation free energy, 298 K", "setting": "in CCC(C)O", "value": -12.3, "unit": "kcal/mol"},
      {"measurement": "solvation free energy, 298 K", "setting": "in CCCC(C)O", "value": -12.3, "unit": "kcal/mol"},
      {"measurement": "solvation free energy, 298 K", "setting": "in CCCCC(CC)CO", "value": -12.4, "unit": "kcal/mol"},
      {"measurement": "solvation free energy, 298 K", "setting": "in CCCCCC", "value": -11.9, "unit": "kcal/mol"},
      {"measurement": "solvation free energy, 298 K", "setting": "in CCCCCCC", "value": -12, "unit": "kcal/mol"},
      {"measurement": "solvation free energy, 298 K", "setting": "in CCCCCCCC", "value": -12, "unit": "kcal/mol"},
      {"measurement": "solvation free energy, 298 K", "setting": "in CCCCCCCCCC", "value": -12, "unit": "kcal/mol"},
      {"measurement": "solvation free energy, 298 K", "setting": "in CCCCCCCCO", "value": -12.5, "unit": "kcal/mol"},
      {"measurement": "solvation free energy, 298 K", "setting": "in CCCCCCCO", "value": -12.5, "unit": "kcal/mol"},
      {"measurement": "solvation free energy, 298 K", "setting": "in CCCCCCO", "value": -12.4, "unit": "kcal/mol"},
      {"measurement": "solvation free energy, 298 K", "setting": "in CCCCCO", "value": -12.4, "unit": "kcal/mol"},
      {"measurement": "solvation free energy, 298 K", "setting": "in CCCCCl", "value": -13.5, "unit": "kcal/mol"},
      {"measurement": "solvation free energy, 298 K", "setting": "in CCCCO", "value": -12.3, "unit": "kcal/mol"},
      {"measurement": "solvation free energy, 298 K", "setting": "in CCCCOC(C)=O", "value": -13.4, "unit": "kcal/mol"},
      {"measurement": "solvation free energy, 298 K", "setting": "in CCCCOCCCC", "value": -12.6, "unit": "kcal/mol"},
      {"measurement": "solvation free energy, 298 K", "setting": "in CCCO", "value": -12.1, "unit": "kcal/mol"},
      {"measurement": "solvation free energy, 298 K", "setting": "in CCO", "value": -12.6, "unit": "kcal/mol"},
      {"measurement": "solvation free energy, 298 K", "setting": "in CCOC(C)=O", "value": -13.5, "unit": "kcal/mol"},
      {"measurement": "solvation free energy, 298 K", "setting": "in CO", "value": -12.1, "unit": "kcal/mol"},
      {"measurement": "solvation free energy, 298 K", "setting": "in COC(C)=O", "value": -13.7, "unit": "kcal/mol"},
      {"measurement": "solvation free energy, 298 K", "setting": "in O", "value": -6.57, "unit": "kcal/mol"}
    ]},
    {"smiles": "c1ccc(Oc2ccccc2)cc1", "values": [
      {"measurement": "solvation free energy, 298 K", "setting": "in O", "value": -2.87, "unit": "kcal/mol"}
    ]},
    {"smiles": "CC(O)CC(C)(C)C", "note": "(centres undefined)", "values": [
      {"measurement": "solvation free energy, 298 K", "setting": "in CCCCCCCC", "value": -5.41, "unit": "kcal/mol"},
      {"measurement": "solvation free energy, 298 K", "setting": "in CCCCCCCCCC", "value": -5.33, "unit": "kcal/mol"}
    ]},
    {"smiles": "C=CC(C)CCCC(C)CCCC(C)CCCC(C)C", "note": "(centres undefined)", "values": [
      {"measurement": "solvation free energy, 298 K", "setting": "in O", "value": 3.75, "unit": "kcal/mol"}
    ]},
    {"smiles": "Oc1ccc(F)cc1", "values": [
      {"measurement": "solvation free energy, 298 K", "setting": "in O", "value": -6.19, "unit": "kcal/mol"}
    ]},
    {"smiles": "COc1ccccc1OC", "values": [
      {"measurement": "solvation free energy, 298 K", "setting": "in O", "value": -5.33, "unit": "kcal/mol"}
    ]}
  ]
}
